According to PMC6497071 (Bioorganic & medicinal chemistry letters, 2018):
Read-outs that look alike come from different tables or passages of the source.

Legend:
SW-620 = SW-620 (Colon Cancer), five dose; cited from earlier work
SF-268 = SF-268 (CNS Cancer), five dose; cited from earlier work
MV4-11 leukemia cells = experiment: MV4-11 leukemia cell viability; assay type: cell-based, human
NCI/ADR-RES = NCI/ADR-RES (Ovarian Cancer), five dose; cited from earlier work
HS 578T = HS 578T (Breast Cancer), five dose; cited from earlier work
OVCAR-4 = OVCAR-4 (Ovarian Cancer), five dose; cited from earlier work
HOP-92 = HOP-92 (Lung Cancer), five dose; cited from earlier work
COLO 205 = COLO 205 (Colon Cancer), five dose; cited from earlier work
UACC-62 = UACC-62 (Melanoma), five dose; cited from earlier work
SNB-19 = SNB-19 (CNS Cancer), five dose; cited from earlier work
NCI-H522 = NCI-H522 (Lung Cancer), five dose; cited from earlier work
[1] = tested on: panel of 60 human tumor cell lines; details: against 87% of the cancer cell lines; cited from earlier work
SF-539 = SF-539 (CNS Cancer), five dose; cited from earlier work
K-562 = K-562 (Leukemia), five dose; cited from earlier work
MDA-MB-231/ATCC = MDA-MB-231/ATCC (Breast Cancer), five dose; cited from earlier work
SK-MEL-5 = SK-MEL-5 (Melanoma), five dose; cited from earlier work
OVCAR-3 = OVCAR-3 (Ovarian Cancer), five dose; cited from earlier work
KM12 = KM12 (Colon Cancer), five dose; cited from earlier work
CCRF-CEM = CCRF-CEM (Leukemia), five dose; cited from earlier work
SF-295 = SF-295 (CNS Cancer), five dose; cited from earlier work
M14 = M14 (Melanoma), five dose; cited from earlier work
HOP-62 = HOP-62 (Lung Cancer), five dose; cited from earlier work
MDA-MB-468 = MDA-MB-468 (Breast Cancer), five dose; cited from earlier work
SK-OV-3 = SK-OV-3 (Ovarian Cancer), five dose; cited from earlier work
MDA-MB-435 = MDA-MB-435 (Melanoma), five dose; cited from earlier work
HCT-15 = HCT-15 (Colon Cancer), five dose; cited from earlier work
U251 = U251 (CNS Cancer), five dose; cited from earlier work
NCI-H23 = NCI-H23 (Lung Cancer), five dose; cited from earlier work
HCC-2998 = HCC-2998 (Colon Cancer), five dose; cited from earlier work
ACHN = ACHN (Renal Cancer), five dose; cited from earlier work
MCF7 = MCF7 (Breast Cancer), five dose; cited from earlier work
SK-MEL-28 = SK-MEL-28 (Melanoma), five dose; cited from earlier work
MOLT-4 = MOLT-4 (Leukemia), five dose; cited from earlier work
LOX IMVI = LOX IMVI (Melanoma), five dose; cited from earlier work
UO-31 = UO-31 (Renal Cancer), five dose; cited from earlier work
IGROV1 = IGROV1 (Ovarian Cancer), five dose; cited from earlier work
A498 = A498 (Renal Cancer), five dose; cited from earlier work
SK-MEL-2 = SK-MEL-2 (Melanoma), five dose; cited from earlier work
SNB-75 = SNB-75 (CNS Cancer), five dose; cited from earlier work
RPMI-8226 = RPMI-8226 (Leukemia), five dose; cited from earlier work
HCT-116 = HCT-116 (Colon Cancer), five dose; cited from earlier work
A549/ATCC = A549/ATCC (Lung Cancer), five dose; cited from earlier work
CAKI-1 = CAKI-1 (Renal Cancer), five dose; cited from earlier work
SR = SR (Leukemia), five dose; cited from earlier work
HT29 = HT29 (Colon Cancer), five dose; cited from earlier work
HL-60(TB) = HL-60(TB) (Leukemia), five dose; cited from earlier work
786-0 = 786-0 (Renal Cancer), five dose; cited from earlier work
tubulin = tubulin polymerization cell-based immunoblot assay; details: immunoblot of pellet and supernatant
[2] = tested on: panel of 60 human tumor cell lines; experiment: NCI-60 five dose assay, whole panel summary; assay type: cell-based

For COc1ccc(/C=C(\C#N)c2cc(OC)c(OC)c(OC)c2)cc1O [Compound 5], the GI50 (SW-620) is given as less than 0.01 µM, the GI50 (SF-268) is given as less than 0.01 µM and the “LD50 (48h)” value (MV4-11 leukemia cells) is given as 0.04 µM. For the same compound, the GI50 (NCI/ADR-RES) was less than 0.01 µM, the GI50 (HS 578T) was less than 0.01 µM and the GI50 (OVCAR-4) was less than 0.01 µM. For the same compound, the GI50 (HOP-92) was less than 0.01 µM, the GI50 (COLO 205) was 2.99 µM and the GI50 (UACC-62) was less than 0.01 µM. For the same compound, the GI50 (SNB-19) was less than 0.01 µM, the GI50 (NCI-H522) was less than 0.01 µM and the GI50 [1] was less than 0.01 µM. The GI50 (SF-539) was less than 0.01 µM, the GI50 (K-562) was less than 0.01 µM and the GI50 (MDA-MB-231/ATCC) was less than 0.01 µM. For the same compound, the GI50 (SK-MEL-5) was less than 0.01 µM, the GI50 (OVCAR-3) was less than 0.01 µM and the GI50 (KM12) was less than 0.01 µM. The GI50 (CCRF-CEM) was less than 0.01 µM, the GI50 (SF-295) was 0.05 µM and the GI50 (M14) was less than 0.01 µM. The GI50 (HOP-62) was less than 0.01 µM, the GI50 (MDA-MB-468) was less than 0.01 µM and the GI50 (SK-OV-3) was 0.01 µM. For the same compound, the GI50 (MDA-MB-435) was less than 0.01 µM, the GI50 (HCT-15) was less than 0.01 µM and the GI50 (U251) was 0.01 µM. The GI50 (NCI-H23) was less than 0.01 µM, the GI50 (HCC-2998) was 0.02 µM and the GI50 (ACHN) was less than 0.01 µM. For the same compound, the GI50 (MCF7) was less than 0.01 µM, the GI50 (SK-MEL-28) was 1.01 µM and the GI50 (MOLT-4) was less than 0.01 µM. The GI50 (LOX IMVI) was less than 0.01 µM, the GI50 (UO-31) was less than 0.01 µM and the GI50 (IGROV1) was less than 0.01 µM. The GI50 (A498) was less than 0.01 µM, the GI50 (SK-MEL-2) was less than 0.01 µM and the GI50 (SNB-75) was less than 0.01 µM. The GI50 (RPMI-8226) was less than 0.01 µM, the GI50 (HCT-116) was less than 0.01 µM and the GI50 (A549/ATCC) was less than 0.01 µM. For the same compound, the GI50 (CAKI-1) was 0.03 µM, the GI50 (SR) was less than 0.01 µM and the GI50 (HT29) was 3.18 µM. For the same compound, the GI50 (HL-60(TB)) was less than 0.01 µM and the GI50 (786-0) was less than 0.01 µM.
In the case of COc1ccccc1/C=C(/c1cc(Br)cc(Br)c1)c1nnn[nH]1 [Compound 8c, (Z)-5-(1-(3,5-Dibromophenyl)-2-(2-methoxyphenyl)vinyl)-1H-tetrazole], the “LD50 (24h)” value (MV4-11 leukemia cells) was 28.8 µM and the “LD50 (48h)” value (MV4-11 leukemia cells) was 28.6 µM.
In the case of COc1ccc(/C=C(/c2cc(OC)c(OC)c(OC)c2)c2nnn[nH]2)cc1 [Compound 8g, (Z)-5-(2-(4-Methoxyphenyl)-1-(3,4,5-trimethoxyphenyl)vinyl)-1H-tetrazole], the “LD50 (24h)” value (MV4-11 leukemia cells) was 4.60 µM, the “LD50 (48h)” value (MV4-11 leukemia cells) was 4.29 µM and the “fold less effective when compared with 8h” value (MV4-11 leukemia cells; LD50 ratio) was roughly 170 fold. The “inhibition of tubulin polymerization” value (tubulin; 1.0 μM and 2.0 μM) was “inhibited tubulin polymerization” and the “inhibition of tubulin polymerization” value (tubulin; 2.0 μM) was “Significant inhibition”.
For COc1ccc(/C=C(/c2cc(OC)c(OC)c(OC)c2)c2nnn[nH]2)cc1O [Compound 8h, (Z)-5-(2-(1H-Tetrazol-5-yl)-2-(3,4,5-trimethoxyphenyl)vinyl)-2-methoxyphenol], the “LD50 (24h)” value (MV4-11 leukemia cells) was 0.03 µM, the “LD50 (48h)” value (MV4-11 leukemia cells) was 0.02 µM and the LD50 (MV4-11 leukemia cells; time not stated in text (equals 24h value of Table 4)) was 30 nM. The LD50 (MV4-11 leukemia cells; time not stated in text (equals 48h value of Table 4)) was 20 nM, the “inhibition of tubulin polymerization” value (tubulin; 1.0 μM and 2.0 μM) was “inhibited tubulin polymerization” and the “inhibition of tubulin polymerization” value (tubulin; 2.0 μM) was “Significant inhibition”. The GI50 ([2]; 60 cell) was less than 0.01 µM.
With COc1ccc(/C=C(/c2ccc([N+](=O)[O-])cc2)c2nnn[nH]2)c2ccccc12 [Compound 10a, (Z)-5-(2-(4-Methoxynaphthalen-1-yl)-1-(4-nitrophenyl)vinyl)-1H-tetrazole] the “LD50 (24h)” value (MV4-11 leukemia cells) was 1.46 µM, the “LD50 (48h)” value (MV4-11 leukemia cells) was 1.39 µM and the “inhibition of tubulin polymerization” value (tubulin; 1.0 μM and 2.0 μM) was “inhibited tubulin polymerization”. For the same compound, the “inhibition of tubulin polymerization” value (tubulin; 2.0 μM) was “Significant inhibition”.
In the case of COc1ccc(/C(=C/c2ccc3ccccc3c2)c2nnn[nH]2)cc1OC [Compound 10b, (Z)-5-(1-(3,4-Dimethoxyphenyl)-2-(naphthalen-2-yl)vinyl)-1H-tetrazole], the “LD50 (24h)” value (MV4-11 leukemia cells) was 1.08 µM, the “LD50 (48h)” value (MV4-11 leukemia cells) was 1.01 µM and the “inhibition of tubulin polymerization” value (tubulin; 1.0 μM and 2.0 μM) was “inhibited tubulin polymerization”. The “inhibition of tubulin polymerization” value (tubulin; 2.0 μM) was “significantly less active”, the GI50 ([2]; against more than 30% of the human cancer cell lines) was less than 2.5 µM and the GI50 ([2]; against only 15% of the cell lines in the panel) was less than 2 µM.
